# Tested on: APJ Receptor
# Assay: In vivo investigations of the stimulation of the APJ receptor by apelin in anesthetized dogs (blood pressure, heart rate, coronary flow)
# Protocol: Adult FBI (Foxhound-Beagle-Irish-Setter) dogs (20-30 kg) are initially anesthetized with thiopental Na (Trapanal, Byk-Gulden) 20-30 mg/kg i.v. Alcuronium chloride (Alloferin, Roche) 0.1 mg/kg is initially given i.v. for muscle relaxation. The animals are intubated and ventilated with a ⅓ O2/N2O mixture using an Engström respiratory pump with 15-18 breaths per min and a volume of 18-24 ml/kg. The ventilation is set accurately according to the arterial partial pressure of CO2, maintaining an average pCO2 of 35-45 mmHg. The maintenance anesthesia is done with isoflurane (Baxter) 1.5-3%. The body temperature is kept at 38° C.±0.1° C. The arterial blood pressure is measured via a catheder in the femoral artery. A thoracotomy is performed at the fifth intercostal space on the left side. The lung is retracted and fixed, and the pericardium is incised. A proximal section of the LAD (left coronary artery) distal to the first diagonal branch is exposed, and a calibrated electromagnetic flow probe (Gould Statham, model SP7515) is placed around the vessel and connected to a flowmeter (Statham, model SP-2202). A mechanical occluder is attached distal of the flow probe in such a way that no branches lie between flow probe and occluder.
# Blood is taken and substances are administered through a catheder in the femoral vein. A peripheral ECG is recorded with subcutaneously fixed needles. A microtip pressure manometer (Millar model PC-350) is pushed through the left atrium in order to measure the left ventricular pressure. Measurement of the heart rate is controlled by the R wave of the ECG. The hemodynamic parameters and the coronary flow are recorded on a multichannel recorder throughout the experiment.
# The experiment is started after a stabilization time of 1 hour. […] The heart rate, blood pressure and coronary flow are recorded and analyzed.
substance,measurement,setting,value
apelin,coronary flow,10 μg/kg i.v. bolus,significant increase in the coronary flow
same,heart rate,bolus and continuous infusion,without changing the heart rate
same,blood pressure,bolus and infusion,reduction in the blood pressure
same,coronary flow,"infusion 1, 3, 5, 10 μg/kg/min for 10 min",dose-dependent increase in coronary flow
same,infusion rate at which maximum increase in coronary flow is reached,infusion for 10 min,3 µg/kg/min

# Reference: patent US20050075275A1, “Regulation of the apj receptor for use in the treatment or prophylaxis of cardiac diseases” (Bayer Aktiengesellschaft, priority 2001, published 2005)
